Our source for the Km values is publication PMC8027415, “Plant resistome profiling in evolutionary old bog vegetation provides new clues to understand emergence of multi-resistance” (The ISME Journal, 2020).

This assay relates to T1, Mm3 (β-lactamase from Moss metagenome clone 3; blaMm3).
T1 construct: mix of tagged 35 kDa and 32 kDa species lacking tag
The assay can be described thus: spectrophotometric hydrolysis at […] nm, initial rates. The assay is classed as biochemical, uncultured bacterium. Particulars: 20 mM sodium phosphate, 0.2 M NaCl, pH 7.4, 30 °C.

Take `CC1(C)S[C@@H]2[C@H](NC(=O)[C@H](N)c3ccccc3)C(=O)N2[C@H]1C(=O)O` [ampicillin]: the Michaelis-Menten constant (Km) (fitted with the Hill equation (half-saturation constant)) worked out at 271 ± 16.4 µM.
As to `CC1(C)S[C@@H]2[C@H](NC(=O)C(C(=O)O)c3ccccc3)C(=O)N2[C@H]1C(=O)O` (some centres unmarked) [carbenicillin], the Km (fitted with the Michaelis-Menten equation) was determined as 400 ± 42.7 µM.

As a reminder, the Km is the substrate concentration at which the rate is half of its maximum.
